The record followed here is PubChem BioAssay (NCI).

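Grown in 96-well plates, cells were treated for 48 hours with each compound at five concentrations. Insufficient inhibition: endpoint recorded as highest concentration tested. At the GI50, growth is halved. TGI denotes the concentration required for complete inhibition of growth.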

Some test systems named below: MDA-MB-435; MALME-3M melanoma; MOLT-4 leukemia; NCI-H522 lung; NCI-H226 lung; TK-10 renal; SK-OV-3 ovarian; NCI-H23 lung; ACHN renal; M14 melanoma.
What all share (assay): NCI anticancer screen, dose series, 48 h

On to `NC(=O)c1cc(Cl)ccc1NC(=O)/C=C/c1ccccc1`, for which the GI50 in the test with MDA-MB-435 was 0.618 µM; in the test with MALME-3M melanoma, 3.18 µM; in the test on MOLT-4 leukemia, 3.44 µM; in the test with NCI-H522 lung it was 1.81 µM; in the test with NCI-H226 lung, 6.42 µM; in the test on TK-10 renal, 7.31 µM. For the same compound, the GI50 is 4.3 µM with SK-OV-3 ovarian, 5.62 µM with NCI-H23 lung, 4.75 µM in the test with ACHN renal and 2.25 µM in the test with M14 melanoma. The TGI with MDA-MB-435 is 3.53 µM; in the test on MALME-3M melanoma, above 100 µM; with MOLT-4 leukemia, above 100 µM; in the test on NCI-H522 lung it was 6.42 µM; in the test on NCI-H226 lung, above 100 µM; in the test with TK-10 renal, above 95.1 µM. The TGI is above 35.5 µM in the test on SK-OV-3 ovarian, above 100 µM in the test with NCI-H23 lung, above 100 µM with ACHN renal and above 31.5 µM in the test on M14 melanoma.
For `COc1ccc(C[N+](C)(C)N)cc1OC`, the GI50 with MDA-MB-435, in the test with MALME-3M melanoma, in the test on MOLT-4 leukemia, with NCI-H522 lung, with TK-10 renal and with SK-OV-3 ovarian was above 100 µM throughout. For the same compound, the GI50 in the test on NCI-H23 lung, with ACHN renal and in the test on M14 melanoma was above 100 µM throughout. Besides, the TGI with MDA-MB-435, with MALME-3M melanoma, with MOLT-4 leukemia, with NCI-H522 lung, in the test on NCI-H226 lung and in the test with TK-10 renal was above 100 µM each time. In addition, the TGI in the test with SK-OV-3 ovarian, in the test with NCI-H23 lung, in the test with ACHN renal and in the test on M14 melanoma was above 100 µM throughout.
`CN(C)CCNc1ccc(CO)c2oc3ccc(O)cc3c(=O)c12`: the TGI amounted to 27.1 µM with MDA-MB-435; 26.6 µM in the test with MALME-3M melanoma; 14.3 µM in the test with MOLT-4 leukemia; 17.1 µM in the test with NCI-H522 lung; 47.7 µM in the test with NCI-H226 lung; 69 µM with TK-10 renal. The TGI was 37.4 µM in the test on SK-OV-3 ovarian, 24.6 µM with NCI-H23 lung, 44 µM in the test with ACHN renal and 29.5 µM in the test on M14 melanoma.
Consider `COc1cc2c(cc1OCCCCC(=O)Nc1cc3c4ccccc4ccc3c3ccccc13)N=C[C@@H]1CCCN1C2=O`, for which the GI50 was 5.44 µM in the test on MDA-MB-435; 3.85 µM with MALME-3M melanoma; 4.62 µM in the test on MOLT-4 leukemia; 4.25 µM with NCI-H522 lung; 0.665 µM in the test with NCI-H226 lung; 2.33 µM in the test with TK-10 renal. For the same compound, the GI50 was 34.3 µM in the test with SK-OV-3 ovarian, 20 µM in the test with NCI-H23 lung, 38.8 µM with ACHN renal and 8.1 µM in the test on M14 melanoma. Further, the TGI was above 92.9 µM with MDA-MB-435; 16 µM in the test on MALME-3M melanoma; above 100 µM in the test on MOLT-4 leukemia; above 100 µM with NCI-H522 lung; 10.8 µM in the test on NCI-H226 lung; 5.73 µM in the test with TK-10 renal. For the same compound, the TGI with SK-OV-3 ovarian is above 100 µM; in the test with NCI-H23 lung, 47.5 µM; in the test with ACHN renal, above 100 µM; in the test on M14 melanoma, 33 µM.
Regarding `C/C(=N\Nc1ccc(Cl)cn1)c1ccc2ccccc2n1`, the GI50 in the test on MDA-MB-435 was 4.45 µM; in the test on MALME-3M melanoma, 2.21 µM; in the test with MOLT-4 leukemia, 1.26 µM; in the test on NCI-H522 lung it was 3.24 µM; in the test with NCI-H226 lung, 11.5 µM; in the test on TK-10 renal, 6.31 µM. The GI50 was 3.73 µM in the test on SK-OV-3 ovarian, 3.55 µM with NCI-H23 lung, 2.49 µM with ACHN renal and 2.39 µM with M14 melanoma. In addition, the TGI with MDA-MB-435, with MALME-3M melanoma, in the test on MOLT-4 leukemia, in the test with NCI-H522 lung, with NCI-H226 lung and in the test on TK-10 renal was above 100 µM throughout. Moreover, the TGI with SK-OV-3 ovarian was above 100 µM; in the test with NCI-H23 lung it was above 100 µM; in the test with ACHN renal, above 100 µM; in the test with M14 melanoma it was 13.7 µM.
With `c1ccc(Sc2ccc(Cc3nc4cc5ccccc5cc4[nH]3)cc2)cc1`, the GI50 in the test on MDA-MB-435 is 11.9 µM; in the test on MALME-3M melanoma, 9.93 µM; with MOLT-4 leukemia, 8.18 µM; in the test with NCI-H522 lung it was 9.69 µM; in the test on NCI-H226 lung, 2.48 µM; in the test on TK-10 renal, 0.456 µM. For the same compound, the GI50 in the test with SK-OV-3 ovarian was 3.27 µM; in the test on NCI-H23 lung, 7.46 µM; in the test on ACHN renal it was 13.2 µM; in the test with M14 melanoma it was 21 µM. The TGI in the test on MDA-MB-435 is above 67.7 µM; in the test with MALME-3M melanoma it was 66.7 µM; with MOLT-4 leukemia, above 100 µM; with NCI-H522 lung, above 62.9 µM; in the test with NCI-H226 lung it was 26.9 µM; with TK-10 renal it was 18 µM. For the same compound, the TGI in the test with SK-OV-3 ovarian is above 24.8 µM; with NCI-H23 lung, 36.1 µM; with ACHN renal, above 75.1 µM; in the test on M14 melanoma it was above 74.5 µM.
For `COc1ccc(/C=C/c2c(C(=O)/C=C/c3ccccc3)c(C)nc3ccccc23)cc1`, the GI50 is 2.18 µM in the test on MDA-MB-435; 1.74 µM with MALME-3M melanoma; 1.33 µM in the test on MOLT-4 leukemia; 1.72 µM in the test with NCI-H522 lung; 1.81 µM in the test on NCI-H226 lung; 2.55 µM in the test on TK-10 renal. The GI50 is 3.13 µM in the test with SK-OV-3 ovarian, 1.73 µM with NCI-H23 lung, 1.68 µM in the test on ACHN renal and 1.84 µM with M14 melanoma. Also, the TGI in the test on MDA-MB-435 was determined as 5.69 µM; in the test on MALME-3M melanoma it was 3.2 µM; in the test on MOLT-4 leukemia, 5.69 µM; with NCI-H522 lung, 4.83 µM; in the test on NCI-H226 lung it was 4.02 µM; in the test on TK-10 renal, 5.73 µM. For the same compound, the TGI with SK-OV-3 ovarian is 9.54 µM; with NCI-H23 lung it was 4.19 µM; in the test on ACHN renal, 3.1 µM; with M14 melanoma, 4.44 µM.
`COCC[C@H]1CCC/C=C/[C@@H]2C[C@H](O)C[C@H]2[C@H](O)/C=C/C(=O)O1`: the GI50 is 0.0595 µM with MDA-MB-435; 0.0344 µM in the test with MALME-3M melanoma; 0.353 µM in the test on MOLT-4 leukemia; 0.21 µM in the test on NCI-H522 lung; 0.0293 µM with NCI-H226 lung; 0.18 µM in the test on TK-10 renal. Moreover, the GI50 in the test on SK-OV-3 ovarian was 0.0725 µM; in the test with NCI-H23 lung it was 0.0858 µM; in the test with ACHN renal, 0.319 µM; with M14 melanoma, 0.0436 µM. Moreover, the TGI in the test with MDA-MB-435 was above 100 µM; with MALME-3M melanoma, 0.228 µM; in the test on MOLT-4 leukemia it was above 100 µM; in the test with NCI-H522 lung, 0.557 µM; in the test with NCI-H226 lung, 0.121 µM; in the test on TK-10 renal it was 0.63 µM. Besides, the TGI in the test on SK-OV-3 ovarian was above 100 µM; in the test on NCI-H23 lung it was 0.858 µM; with ACHN renal it was above 100 µM; with M14 melanoma it was above 100 µM.
